According to patent US20220370451A1, “INHIBITORS OF HUMAN IMMUNODEFICIENCY VIRUS REPLICATION” (VIIV HEALTHCARE UK ( No. 5) LIMITED, priority 2019, published 2022):

Assays:
recombinant NL4-3 virus = assay: HIV cell culture assay (luciferase reporter antiviral activity); format: cell-based; settings: Human immunodeficiency virus 1, NL43, MT2
Method: HIV cell culture assay—MT=2 cells, 293T cells and the proviral DNA clone of NL4-3 virus were obtained from the NIH AIDS Research and Reference Reagent Program. MT=2 cells were propagated in RPMI 1640 media supplemented with 10% heat inactivated fetal bovine serum (FBS), […] penicillin G and up to 100 units/mL streptomycin. The 293T cells were propagated in DMEM media supplemented with 10% heat inactivated FBS, […] penicillin G and […] streptomycin. A recombinant NL4-3 proviral clone, in which a section of the nef gene was replaced with the Renilla luciferase gene, was used to make the reference virus used in these studies. The recombinant virus was prepared through transfection of the recombinant NL4-3 proviral clone into 293T cells using Transit-293 Transfection Reagent from Mirus Bio LLC (Madison, Wis.). Supernatent was harvested after 2-3 days and the amount of virus present was titered in MT=2 cells using luciferase enzyme activity as a marker by measuring luciferase enzyme activity. Luciferase was quantitated using the EnduRen Live Cell Substrate from Promega (Madison, Wis.). Antiviral activities of compounds toward the recombinant virus were quantified by measuring luciferase activity in MT=2 cells infected for 4-5 days with the recombinant virus in the presence of serial dilutions of the compound.
The 50% effective concentration (EC50) was calculated by using the exponential form of the median effect equation where (Fa)=1/[1+(ED50/drug conc.)m] (Johnson V A, Byington RT. Infectivity Assay. In Techniques in HIV Research. ed. Aldovini A, Walker B D. 71-76. New York: Stockton Press.1990). The 50% inhibitory concentration (EC50) was calculated by using the exponential form of the median effect equation where percent inhibition=1/[1+(EC50/drug concentration)m], where m is a parameter that reflects the slope of the concentration-response curve.

[1] = Compound cytotoxicity, XTT-based colorimetric assay; format: cell-based; settings: human; uninfected MT2 cells, day 4, XTT
Method: Compound cytotoxicity and the corresponding CC50 values were determined using the same protocol as described in the antiviral assay except that uninfected cells were used. Cytotoxicity was assessed on day 4 in uninfected MT2 cells by using a XTT (2,3-bis[2-Methoxy-4-nitro-5-sulfophenyl]-2H-tetrazolium-5-carboxyanilide inner salt)-based colorimetric assay (Sigma-Aldrich, St Louis, Mo.).

SMILES | EC50 (recombinant NL4-3 virus) [nM] | CC50 at 4 days [1] [nM]
CS(=O)(=O)Nc1nn(CC(F)F)c2c(-n3c([C@H](Cc4cc(F)cc(F)c4)NC(=O)Cn4nc(C5CC5)c5ccccc54)nc4nc(-c5ccccc5F)ccc4c3=O)ccc(Cl)c12 (atropisomer, axis not shown; (P)) [Example 18, (S)-N-(1-((3P)-3-(4-chloro-1-(2,2-difluoroethyl)-3-(methylsulfonamido)-1H-indazol-7-yl)-7-(2-fluorophenyl)-4-oxo-3,4-dihydropyrido[2,3-d]pyrimidin-2-yl)-2-(3,5-difluorophenyl)ethyl)-2-(3-cyclopropyl-1H-indazol-1-yl)acetamide] | 0.17 | > 500
Cn1nc(NS(C)(=O)=O)c2c(Cl)ccc(-n3c([C@H](Cc4cc(F)cc(F)c4)NC(=O)C(C)(C)n4ccc(C5CC5)n4)nc4nc(-c5ccccc5F)ccc4c3=O)c21 (atropisomer, axis not shown; (P)) [Example 19, (S)-N-(1-((3P)-3-(4-chloro-1-methyl-3-(methylsulfonamido)-1H-indazol-7-yl)-7-(2-fluorophenyl)-4-oxo-3,4-dihydropyrido[2,3-d]pyrimidin-2-yl)-2-(3,5-difluorophenyl)ethyl)-2-(3-cyclopropyl-1H-pyrazol-1-yl)-2-methylpropanamide] | 0.22 | > 500
CC(C)(C(=O)N[C@@H](Cc1cc(F)cc(F)c1)c1nc2nc(-c3ccccc3F)ccc2c(=O)n1-c1ccc(Cl)c2c(NS(C)(=O)=O)nn(CC(F)F)c12)n1ccc(C2CC2)n1 (atropisomer, axis not shown; (P)) [Example 20] | 0.96 | > 500
CC(C)(C(=O)N[C@@H](Cc1cc(F)cc(F)c1)c1nc2nc(-c3ccccc3F)ccc2c(=O)n1-c1ccc(Cl)c2c(NS(=O)(=O)C3CC3)nn(CC(F)F)c12)n1ccc(C2CC2)n1 (atropisomer, axis not shown; (P)) [Example 21, (S)-N-(1-((3P)-3-(4-chloro-3-(cyclopropanesulfonamido)-1-(2,2-difluoroethyl)-1H-indazol-7-yl)-7-(2-fluorophenyl)-4-oxo-3,4-dihydropyrido[2,3-d]pyrimidin-2-yl)-2-(3,5-difluorophenyl)ethyl)-2-(3-cyclopropyl-1H-pyrazol-1-yl)-2-methylpropanamide] | 2.3 | > 500
CC(C)(C(=O)N[C@@H](Cc1cc(F)cc(F)c1)c1nc2nc(-c3ccccc3F)ccc2c(=O)n1-c1ccc(Cl)c2c(NS(C)(=O)=O)nn(CC(F)(F)F)c12)n1ccc(C2CC2)n1 (atropisomer, axis not shown; (P)) [Example 22, (S)-N-(1-((3P)-3-(4-chloro-3-(methylsulfonamido)-1-(2,2,2-trifluoroethyl)-1H-indazol-7-yl)-7-(2-fluorophenyl)-4-oxo-3,4-dihydropyrido[2,3-d]pyrimidin-2-yl)-2-(3,5-difluorophenyl)ethyl)-2-(3-cyclopropyl-1H-pyrazol-1-yl)-2-methylpropanamide] | 0.8 | > 500
CC(C)[C@@H](C(=O)N[C@@H](Cc1cc(F)cc(F)c1)c1nc2nc(-c3ccccc3F)ccc2c(=O)n1-c1ccc(Cl)c2c(NS(C)(=O)=O)nn(CC(F)(F)F)c12)n1ccc(C2CC2)n1 (atropisomer, axis not shown; (P)) [Example 23, N-((S)-1-((3P)-3-(4-chloro-3-(methylsulfonamido)-1-(2,2,2-trifluoroethyl)-1H-indazol-7-yl)-7-(2-fluorophenyl)-4-oxo-3,4-dihydropyrido[2,3-d]pyrimidin-2-yl)-2-(3,5-difluorophenyl)ethyl)-2-(3-cyclopropyl-1H-pyrazol-1-yl)-3-methylbutanamide] | 0.21 | > 500
CC(C)[C@H](C(=O)N[C@@H](Cc1cc(F)cc(F)c1)c1nc2nc(-c3ccccc3F)ccc2c(=O)n1-c1ccc(Cl)c2c(NS(=O)(=O)C3CC3)nn(CC(F)F)c12)n1ccc(C2CC2)n1 (atropisomer, axis not shown; (P)) [Example 24, N-((S)-1-((3P)-3-(4-chloro-3-(cyclopropanesulfonamido)-1-(2,2-difluoroethyl)-1H-indazol-7-yl)-7-(2-fluorophenyl)-4-oxo-3,4-dihydropyrido[2,3-d]pyrimidin-2-yl)-2-(3,5-difluorophenyl)ethyl)-2-(3-cyclopropyl-1H-pyrazol-1-yl)-3-methylbutanamide] | 3.9 | > 500
CC(C)[C@H](C(=O)N[C@@H](Cc1cc(F)cc(F)c1)c1nc2nc(-c3ccccc3F)ccc2c(=O)n1-c1ccc(Cl)c2c(NS(C)(=O)=O)nn(CC(F)(F)F)c12)n1ccc(C2CC2)n1 (atropisomer, axis not shown; (P)) [Example 26, N-((S)-1-((3P)-3-(4-chloro-3-(methylsulfonamido)-1-(2,2,2-trifluoroethyl)-1H-indazol-7-yl)-7-(2-fluorophenyl)-4-oxo-3,4-dihydropyrido[2,3-d]pyrimidin-2-yl)-2-(3,5-difluorophenyl)ethyl)-2-(3-cyclopropyl-1H-pyrazol-1-yl)-3-methylbutanamide] | 1.9 | > 500
Cn1nc(NS(C)(=O)=O)c2c(Cl)ccc(-n3c([C@H](Cc4cc(F)cc(F)c4)NC(=O)Cn4nc(C5CC5)cc4C(F)F)nc4cc(-c5ccccc5F)ccc4c3=O)c21 (atropisomer, axis not shown; (P)) [Example 29, (S)-N-(1-((3P)-3-(4-chloro-1-methyl-3-(methylsulfonamido)-1H-indazol-7-yl)-7-(2-fluorophenyl)-4-oxo-3,4-dihydroquinazolin-2-yl)-2-(3,5-difluorophenyl)ethyl)-2-(3-cyclopropyl-5-(difluoromethyl)-1H-pyrazol-1-yl)acetamide] | 3.1 | > 500
Cc1nccnc1-c1ccc2c(=O)n(-c3ccc(C)c4c(NS(C)(=O)=O)nn(CC(F)F)c34)c([C@H](Cc3cc(F)cc(F)c3)NC(=O)Cn3nc(C(F)F)c4c3C(F)(F)[C@@H]3C[C@H]43)nc2c1 (atropisomer, axis not shown; (P)) [Example 32, N-((S)-1-(3-(1-(2,2-difluoroethyl)-4-methyl-3-(methylsulfonamido)-1H-indazol-7-yl)-(3P)-7-(3-methylpyrazin-2-yl)-4-oxo-3,4-dihydroquinazolin-2-yl)-2-(3,5-difluorophenyl)ethyl)-2-((3bS,4aR)-3-(difluoromethyl)-5,5-difluoro-3b,4,4a,5-tetrahydro-1H-cyclopropa[3,4]cyclopenta[1,2-c]pyrazol-1-yl)acetamide] | 0.063 | > 500
O=C(Cn1nc(C(F)F)cc1C1CC1)N[C@@H](Cc1cc(F)cc(F)c1)c1nc2cc(-c3ccccn3)ccc2c(=O)n1-c1ccc(Cl)c2c(NS(=O)(=O)C3CC3)nn(CC(F)F)c12 (atropisomer, axis not shown; (P)) [Example 33, (S)-N-(1-((3P)-3-(4-chloro-3-(cyclopropanesulfonamido)-1-(2,2-difluoroethyl)-1H-indazol-7-yl)-4-oxo-7-(pyridin-2-yl)-3,4-dihydroquinazolin-2-yl)-2-(3,5-difluorophenyl)ethyl)-2-(5-cyclopropyl-3-(difluoromethyl)-1H-pyrazol-1-yl)acetamide] | 0.79 | > 500
